In patent US20190100498A1, “CRYSTALLINE FORM” (AstraZeneca AB, priority 2016, published 2019):

Test: accelerated degradation studies (chemical stability, purity by HPLC)
Assay type: physicochemical
Description: Crystalline particles of Form S of the compound of formula (I) were obtained using the methods described in Example 5 above. Crystalline particles of Form A were also obtained, using the ethyl acetate-heptane crystallization system described in WO2010/071583. Samples of Form A and Form S were subject to accelerated degradation studies. Samples of each crystalline form were stored at varying combinations of temperature and relative humidity and analysed for purity by HPLC at 0, 14 and 28 days.

[1] = 60 °C, 30% relative humidity, Day 0
[2] = 60 °C, 30% relative humidity, Day 14
[3] = 60 °C, 30% relative humidity, Day 28
[4] = 60 °C, 75% relative humidity, Day 0
[5] = 60 °C, 75% relative humidity, Day 14
[6] = 60 °C, 75% relative humidity, Day 28
[7] = 70 °C, 11% relative humidity, Day 0
[8] = 70 °C, 11% relative humidity, Day 14
[9] = 70 °C, 11% relative humidity, Day 28
[10] = 70 °C, 75% relative humidity, Day 0
[11] = 70 °C, 75% relative humidity, Day 14
[12] = 70 °C, 75% relative humidity, Day 28
[13] = 80 °C, 30% relative humidity, Day 0
[14] = 80 °C, 30% relative humidity, Day 14
[15] = 80 °C, 30% relative humidity, Day 28

SMILES: CNCCOc1ccccc1C1(Nc2nccn(-c3cc(C(=O)NC4CC4)cc(F)c3C)c2=O)CC1 [Form A, N-cyclopropyl-3-fluoro-4-methyl-5-[3-[[1-[2-[2-(methylamino)ethoxy]phenyl]cyclopropyl]amino]-2-oxo-pyrazin-1-yl]benzamide, reference compound]
- Purity by HPLC [1]: 99.43%
- Purity by HPLC [2]: 99.41%
- Purity by HPLC [3]: 99.39%
- Purity by HPLC [4]: 99.43%
- Purity by HPLC [5]: 99.20%
- Purity by HPLC [6]: 99.21%
- Purity by HPLC [7]: 99.43%
- Purity by HPLC [8]: 99.33%
- Purity by HPLC [9]: 99.33%
- Purity by HPLC [10]: 99.43%
- Purity by HPLC [11]: 98.78%
- Purity by HPLC [12]: 98.76%
- Purity by HPLC [13]: 99.43%
- Purity by HPLC [14]: 99.40%
- Purity by HPLC [15]: 99.36%

SMILES: CNCCOc1ccccc1C1(Nc2nccn(-c3cc(C(=O)NC4CC4)cc(F)c3C)c2=O)CC1 [Form S, N-cyclopropyl-3-fluoro-4-methyl-5-[3-[[1-[2-[2-(methylamino)ethoxy]phenyl]cyclopropyl]amino]-2-oxo-pyrazin-1-yl]benzamide]
- Purity by HPLC [1]: 99.77%
- Purity by HPLC [2]: 99.77%
- Purity by HPLC [3]: 99.77%
- Purity by HPLC [4]: 99.77%
- Purity by HPLC [5]: 99.64%
- Purity by HPLC [6]: 99.63%
- Purity by HPLC [7]: 99.77%
- Purity by HPLC [8]: 99.77%
- Purity by HPLC [9]: 99.77%
- Purity by HPLC [10]: 99.77%
- Purity by HPLC [11]: 99.77%
- Purity by HPLC [12]: 99.77%
- Purity by HPLC [13]: 99.77%
- Purity by HPLC [14]: 99.77%
- Purity by HPLC [15]: 99.78%
- degradation in accelerated degradation studies (under all the conditions that the samples were exposed to, Form S compared with Form A): significantly less degradation than Form A
